Laboratory results reported in ChEMBL document CHEMBL1201862, “PubChem BioAssay data set” (2004).
Several values for one entry are separate records, joined by “and”; a condition that tells them apart may be missing. Equal values may be shown once. Activity calls are given as the source filed them.

Tests used:
[1] = molecular target: T1, Neuropeptide Y receptor type 2 (Homo sapiens, UniProt P49146); test: Fluorescence-based counterscreen for agonists of NPY-Y1: cell-based high-throughput dose response assay for agonists of NPY-Y2.; type: functional
T1 sequence (P49146 whole entry): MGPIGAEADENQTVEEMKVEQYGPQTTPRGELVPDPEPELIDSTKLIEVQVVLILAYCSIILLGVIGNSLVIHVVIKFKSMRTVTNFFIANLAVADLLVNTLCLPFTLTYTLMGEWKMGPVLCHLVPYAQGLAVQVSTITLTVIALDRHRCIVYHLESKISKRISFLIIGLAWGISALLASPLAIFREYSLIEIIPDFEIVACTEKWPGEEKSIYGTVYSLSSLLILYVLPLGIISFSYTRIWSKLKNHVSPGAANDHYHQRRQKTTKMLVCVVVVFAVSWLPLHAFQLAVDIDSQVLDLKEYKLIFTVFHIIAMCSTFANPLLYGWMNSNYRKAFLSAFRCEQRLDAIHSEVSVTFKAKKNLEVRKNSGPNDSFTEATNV

[2] = tested on: HEK293; test: Fluorescence-based counterscreen for potentiators or agonists of NPY-Y1: cell-based high-throughput dose response assay for inhibitors of cyclic nucleotide gated ion channel (CNGC) activity. In this assay, the parental HEK293 cell line transfected with a cyclic-nucleotide gated ion channel (CNGC)-based cAMP sensor is used to measure inhibition of isoproterenol-induced CNGC …; type: functional; settings: Homo sapiens
[3] = molecular target: T2, Neuropeptide Y receptor type 1 (Homo sapiens, UniProt P25929); test: Fluorescence-based dose response cell-based high-throughput screening assay for agonists of NPY-Y1. [Related pubchem assays: 1697 (Screening assay (NPY-Y1 agonists).), 1359 (Screening assay (NPY-Y2 potentiators or agonists).), 1304 (Screening assay (NPY-Y1 potentiators or agonists).), 1704 (Screening assay (CNGC inhibitors).), 1791 (Summary AID.)]; type: functional
T2 sequence (P25929 whole entry): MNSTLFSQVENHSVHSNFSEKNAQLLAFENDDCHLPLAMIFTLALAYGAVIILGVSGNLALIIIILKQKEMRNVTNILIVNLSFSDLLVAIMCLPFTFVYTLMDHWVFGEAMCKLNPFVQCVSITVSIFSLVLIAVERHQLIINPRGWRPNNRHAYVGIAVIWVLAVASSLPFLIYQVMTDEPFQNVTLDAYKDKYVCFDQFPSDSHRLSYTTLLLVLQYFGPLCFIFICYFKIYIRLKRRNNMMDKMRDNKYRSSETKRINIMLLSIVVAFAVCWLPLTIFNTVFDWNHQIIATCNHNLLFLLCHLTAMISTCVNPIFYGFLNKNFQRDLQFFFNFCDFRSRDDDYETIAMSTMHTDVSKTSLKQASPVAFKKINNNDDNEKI

[4] = molecular target: DNA topoisomerase (Yersinia pestis, UniProt A0A2S9PM60); test: Yersinia topoisomerase I cleavage product accumulation – biochemical, cherry-pick, dose response (AID 588525)
Chain of DNA topoisomerase (A0A2S9PM60 whole entry, the tested form may be a part): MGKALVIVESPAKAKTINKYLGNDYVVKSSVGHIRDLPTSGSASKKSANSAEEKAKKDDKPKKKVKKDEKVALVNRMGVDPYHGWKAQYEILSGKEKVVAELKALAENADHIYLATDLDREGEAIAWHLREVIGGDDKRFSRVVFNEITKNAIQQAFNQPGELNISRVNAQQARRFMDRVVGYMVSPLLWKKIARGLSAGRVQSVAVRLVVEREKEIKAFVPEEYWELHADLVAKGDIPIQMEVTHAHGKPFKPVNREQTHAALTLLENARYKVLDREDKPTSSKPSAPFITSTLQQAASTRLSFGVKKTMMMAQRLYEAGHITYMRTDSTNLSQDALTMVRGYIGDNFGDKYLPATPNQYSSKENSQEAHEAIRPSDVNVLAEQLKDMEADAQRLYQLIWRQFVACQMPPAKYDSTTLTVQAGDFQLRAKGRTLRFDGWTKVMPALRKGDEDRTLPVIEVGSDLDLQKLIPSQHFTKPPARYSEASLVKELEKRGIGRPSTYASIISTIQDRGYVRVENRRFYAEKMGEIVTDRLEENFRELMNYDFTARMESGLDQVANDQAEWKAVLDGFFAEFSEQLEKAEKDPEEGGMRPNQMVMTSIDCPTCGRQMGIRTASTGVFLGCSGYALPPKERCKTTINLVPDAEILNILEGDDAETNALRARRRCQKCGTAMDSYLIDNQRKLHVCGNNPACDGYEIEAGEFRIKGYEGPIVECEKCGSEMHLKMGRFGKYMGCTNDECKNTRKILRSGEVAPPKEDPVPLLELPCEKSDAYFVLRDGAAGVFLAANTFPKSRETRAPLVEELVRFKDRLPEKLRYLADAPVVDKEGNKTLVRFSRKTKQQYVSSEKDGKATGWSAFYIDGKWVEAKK

[5] = molecular target: T3, Estrogen receptor (Homo sapiens, UniProt P03372); test: ERα coactivator recruitment enhancers – biochemical, TR-FRET, ERα LBD, dose response (AID 737)
T3 sequence (P03372 whole entry): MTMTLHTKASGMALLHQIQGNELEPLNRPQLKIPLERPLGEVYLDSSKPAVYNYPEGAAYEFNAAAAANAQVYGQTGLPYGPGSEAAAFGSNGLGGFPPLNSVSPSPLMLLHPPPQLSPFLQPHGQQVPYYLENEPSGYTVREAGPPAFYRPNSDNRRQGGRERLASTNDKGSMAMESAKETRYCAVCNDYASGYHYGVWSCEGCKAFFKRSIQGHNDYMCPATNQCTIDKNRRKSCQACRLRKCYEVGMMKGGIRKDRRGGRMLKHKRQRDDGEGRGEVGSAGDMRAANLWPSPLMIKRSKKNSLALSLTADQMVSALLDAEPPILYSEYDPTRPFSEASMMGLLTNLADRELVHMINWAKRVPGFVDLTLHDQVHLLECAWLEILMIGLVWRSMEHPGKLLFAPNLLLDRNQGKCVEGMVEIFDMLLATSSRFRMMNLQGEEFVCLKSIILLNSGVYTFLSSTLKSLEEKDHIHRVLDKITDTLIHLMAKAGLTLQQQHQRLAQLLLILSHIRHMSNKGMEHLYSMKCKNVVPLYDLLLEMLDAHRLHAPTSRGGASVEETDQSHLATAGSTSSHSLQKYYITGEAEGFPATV

[6] = molecular target: Mothers against decapentaplegic homolog 3 (Homo sapiens, UniProt P84022); test: blockers of Smad3 complex formation in lysate – cell lysate, secondary confirmation, chemiluminescent ELISA, HEK293 lysate, dose response (AID 1058); type: functional
Chain of Mothers against decapentaplegic homolog 3 (P84022 whole entry): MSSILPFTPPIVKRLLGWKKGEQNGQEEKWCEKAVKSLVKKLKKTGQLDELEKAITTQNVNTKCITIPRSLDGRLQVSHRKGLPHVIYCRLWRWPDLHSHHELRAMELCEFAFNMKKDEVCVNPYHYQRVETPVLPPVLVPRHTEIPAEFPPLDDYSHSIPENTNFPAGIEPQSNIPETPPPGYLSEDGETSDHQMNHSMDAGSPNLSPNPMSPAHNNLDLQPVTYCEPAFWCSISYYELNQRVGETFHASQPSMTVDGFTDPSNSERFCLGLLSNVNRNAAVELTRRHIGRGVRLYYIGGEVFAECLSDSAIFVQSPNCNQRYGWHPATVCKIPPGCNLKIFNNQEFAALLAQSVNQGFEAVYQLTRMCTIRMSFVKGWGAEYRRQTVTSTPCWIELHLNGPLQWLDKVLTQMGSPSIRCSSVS

[7] = molecular target: Cyclin-dependent kinase 5/CDK5 activator 1 (Homo sapiens, UniProt Q00535); test: blockade of human CDK5 activity – biochemical, cherry-picked samples, set 2, dose response (AID 504545)
Chain of Cyclin-dependent kinase 5/CDK5 activator 1 (Q00535 whole entry): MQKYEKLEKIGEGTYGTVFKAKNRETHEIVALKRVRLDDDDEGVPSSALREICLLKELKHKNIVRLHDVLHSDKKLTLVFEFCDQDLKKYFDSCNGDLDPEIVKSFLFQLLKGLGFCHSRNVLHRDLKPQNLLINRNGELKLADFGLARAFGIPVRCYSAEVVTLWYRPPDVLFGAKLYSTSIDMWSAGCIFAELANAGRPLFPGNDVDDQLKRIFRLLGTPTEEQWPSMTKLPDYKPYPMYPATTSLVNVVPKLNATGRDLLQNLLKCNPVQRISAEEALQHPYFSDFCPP
Chain of Cyclin-dependent kinase 5/CDK5 activator 1 (Q15078 whole entry, further chain): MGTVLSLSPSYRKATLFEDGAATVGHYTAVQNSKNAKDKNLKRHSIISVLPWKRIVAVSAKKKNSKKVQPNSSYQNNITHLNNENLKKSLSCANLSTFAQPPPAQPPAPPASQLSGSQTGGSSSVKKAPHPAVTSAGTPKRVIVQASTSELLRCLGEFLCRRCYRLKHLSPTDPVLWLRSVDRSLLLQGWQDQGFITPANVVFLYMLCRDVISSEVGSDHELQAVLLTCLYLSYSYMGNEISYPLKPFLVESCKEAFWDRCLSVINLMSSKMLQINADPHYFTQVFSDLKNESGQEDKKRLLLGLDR

[8] = molecular target: Heat shock protein HSP 90-alpha (Homo sapiens, UniProt P07900); type: functional, organism-based
[9] = M. tuberculosis H37Rv growth inhibitors, H37Rv strain (AID 1626); type: functional
[10] = cells; type: functional
[11] = antiviral protection against BTV-induced cell death – arbovirus, BSR cells, confirmation (AID 1250); type: functional;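 also: protection from viral cytopathic effect measured as cell viability by ATP luminescence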
[12] = molecular target: Heat shock protein HSP90 (Homo sapiens, UniProt P07900+P08238); test: Hsp90 blockade concentration-response – dose response (AID 712); type: functional
[13] = molecular target: Voltage-gated inwardly rectifying potassium channel KCNH2 (Homo sapiens, UniProt Q12809); settings: Potency;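 also: confirmatory quantitative high-throughput screen measuring inhibition of hERG channel activity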
Chain of Voltage-gated inwardly rectifying potassium channel KCNH2 (Q12809 whole entry): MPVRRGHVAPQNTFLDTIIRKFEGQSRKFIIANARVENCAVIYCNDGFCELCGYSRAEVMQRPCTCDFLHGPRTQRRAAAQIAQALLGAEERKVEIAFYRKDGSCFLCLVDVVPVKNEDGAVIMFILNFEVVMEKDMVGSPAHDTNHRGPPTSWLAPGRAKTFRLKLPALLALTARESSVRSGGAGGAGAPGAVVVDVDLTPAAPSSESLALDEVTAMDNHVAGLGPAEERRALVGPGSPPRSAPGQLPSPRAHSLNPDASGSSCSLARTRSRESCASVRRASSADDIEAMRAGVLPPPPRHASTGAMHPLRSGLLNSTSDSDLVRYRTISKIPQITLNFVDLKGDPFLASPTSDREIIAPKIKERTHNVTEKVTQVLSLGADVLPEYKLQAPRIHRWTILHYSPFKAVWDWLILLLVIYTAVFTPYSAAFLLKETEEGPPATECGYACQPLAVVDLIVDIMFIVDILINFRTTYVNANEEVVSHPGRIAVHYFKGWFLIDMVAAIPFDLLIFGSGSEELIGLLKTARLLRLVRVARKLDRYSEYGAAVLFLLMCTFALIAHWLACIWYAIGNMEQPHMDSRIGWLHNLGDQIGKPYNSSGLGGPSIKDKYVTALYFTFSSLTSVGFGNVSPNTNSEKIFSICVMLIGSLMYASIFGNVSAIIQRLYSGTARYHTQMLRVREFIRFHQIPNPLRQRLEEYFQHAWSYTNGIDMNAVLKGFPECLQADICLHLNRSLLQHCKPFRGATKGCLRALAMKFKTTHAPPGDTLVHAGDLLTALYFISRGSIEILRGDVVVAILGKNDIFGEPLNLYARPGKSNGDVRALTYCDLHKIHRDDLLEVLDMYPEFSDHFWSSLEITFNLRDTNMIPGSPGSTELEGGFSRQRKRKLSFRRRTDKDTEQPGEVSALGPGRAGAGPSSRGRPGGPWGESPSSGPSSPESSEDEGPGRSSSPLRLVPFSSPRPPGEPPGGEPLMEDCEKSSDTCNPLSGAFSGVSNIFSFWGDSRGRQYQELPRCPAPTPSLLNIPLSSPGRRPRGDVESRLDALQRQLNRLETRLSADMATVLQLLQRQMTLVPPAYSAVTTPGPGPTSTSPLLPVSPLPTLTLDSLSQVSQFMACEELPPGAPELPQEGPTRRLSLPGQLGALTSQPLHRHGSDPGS

[14] = molecular target: Protein-tyrosine kinase 2-beta (Homo sapiens, UniProt Q14289);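 also: potency of inhibitors of PYK2 kinase phosphorylation of poly-GT substrate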
Chain of Protein-tyrosine kinase 2-beta (Q14289 whole entry): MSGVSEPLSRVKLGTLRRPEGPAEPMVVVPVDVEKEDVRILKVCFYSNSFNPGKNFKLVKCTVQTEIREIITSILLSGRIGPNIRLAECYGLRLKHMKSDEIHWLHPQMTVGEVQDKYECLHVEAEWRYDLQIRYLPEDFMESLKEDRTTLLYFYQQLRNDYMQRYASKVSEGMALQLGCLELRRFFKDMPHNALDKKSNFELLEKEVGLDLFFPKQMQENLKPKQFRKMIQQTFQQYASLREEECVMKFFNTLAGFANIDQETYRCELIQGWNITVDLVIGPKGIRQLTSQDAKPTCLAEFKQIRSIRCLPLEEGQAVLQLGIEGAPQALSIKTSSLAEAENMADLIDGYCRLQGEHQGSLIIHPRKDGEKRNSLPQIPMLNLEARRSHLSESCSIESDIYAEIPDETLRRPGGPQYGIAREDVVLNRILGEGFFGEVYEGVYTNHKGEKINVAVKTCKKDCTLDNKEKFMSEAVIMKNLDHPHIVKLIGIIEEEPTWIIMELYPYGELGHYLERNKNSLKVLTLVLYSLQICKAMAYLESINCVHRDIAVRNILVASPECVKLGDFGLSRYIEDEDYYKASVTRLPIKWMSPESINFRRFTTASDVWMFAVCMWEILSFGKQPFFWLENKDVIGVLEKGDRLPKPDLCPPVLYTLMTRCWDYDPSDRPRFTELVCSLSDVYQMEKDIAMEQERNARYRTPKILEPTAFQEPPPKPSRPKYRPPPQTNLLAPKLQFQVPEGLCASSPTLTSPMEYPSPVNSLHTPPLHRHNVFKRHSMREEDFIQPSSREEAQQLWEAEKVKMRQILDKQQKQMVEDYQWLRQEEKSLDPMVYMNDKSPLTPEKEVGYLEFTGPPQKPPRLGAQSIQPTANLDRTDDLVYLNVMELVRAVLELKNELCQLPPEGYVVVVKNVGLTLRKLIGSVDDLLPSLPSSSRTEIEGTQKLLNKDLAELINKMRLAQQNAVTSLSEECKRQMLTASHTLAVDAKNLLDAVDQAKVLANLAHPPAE

With CSc1nc(-c2ccco2)nn1C(=O)c1ccccc1Cl the EC50 [1] was > 35.4 µM (not active), the IC50 [2] was > 35.4 µM (not active) and the EC50 [3] was > 35.4 µM (not active).
In the case of CCc1ccc(Nc2nc(N)nc(CSc3nnnn3-c3ccccc3)n2)cc1, the AC50 [4] is reported as 6.16 µM (active) and the EC50 [5] is reported as 4.76 µM (active).
With COc1ccc(C(c2cc3c(cc2O)OCO3)N2CCCCC2)cc1OC (centres undefined) the IC50 [6] was > 40 µM (not active).
For O=[N+]([O-])c1ccc2c(c1)-c1ccccc1C2=NO, the AC50 [7] was 8.4 µM (active) and the AC50 [8] was 3.93 µM (active).
With O=C(Nc1nc2ccccc2[nH]1)c1cccc([N+](=O)[O-])c1 the IC50 [9] was > 100 µM (active) and the IC50 [10] was 4.91 µM (active).
For CC(=O)/C(=N/Nc1cccc(Cl)c1)Sc1nnc(C(O)c2ccccc2)n1-c1ccccc1 (centres undefined), the IC50 [11] was 37.7 µM (active).
For C[C@H]1CCCC(=O)CCC/C=C/c2cc(O)cc(O)c2C(=O)O1 [ZEARALENONE], the IC50 [12] was 2.402 µM, the AC50 [13] was 39.8 µM (inconclusive) and 56.2 µM (inconclusive) and the IC50 [14] was 6.92 µM (active).
